This is an account of results in ChEMBL document CHEMBL5291721, “A preclinical secondary pharmacology resource illuminates target-adverse drug reaction associations of marketed drugs” (Nat Commun, 2023).

What is called AC50 is the midpoint of the concentration-response curve, whichever way the signal moves.

Among the targets are Adenosine receptor A2a (Homo sapiens, UniProt P29274); Melanocortin receptor 3 (Homo sapiens, UniProt P41968); D(3) dopamine receptor (Homo sapiens, UniProt P35462).
Experiment [1] deals with Voltage-gated inwardly rectifying potassium channel KCNH2 (Homo sapiens, UniProt Q12809). The class given is functional. The conditions noted are these: read-out: AC50.
Another experiment addresses T1, Adenosine receptor A1 (Homo sapiens, UniProt P30542).
T1 sequence (P30542 whole entry): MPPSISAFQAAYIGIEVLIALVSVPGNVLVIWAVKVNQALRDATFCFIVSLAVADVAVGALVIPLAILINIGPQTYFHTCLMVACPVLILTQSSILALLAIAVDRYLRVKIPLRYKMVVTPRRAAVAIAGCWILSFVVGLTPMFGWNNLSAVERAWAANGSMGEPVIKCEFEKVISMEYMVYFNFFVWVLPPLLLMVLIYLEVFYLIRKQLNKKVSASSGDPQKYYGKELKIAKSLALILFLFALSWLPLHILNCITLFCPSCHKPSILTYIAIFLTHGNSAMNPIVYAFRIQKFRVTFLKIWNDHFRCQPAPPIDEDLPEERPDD

The target in the next experiment is T2, Adenosine receptor A3 (Homo sapiens, UniProt P0DMS8).
T2 sequence (P0DMS8 whole entry): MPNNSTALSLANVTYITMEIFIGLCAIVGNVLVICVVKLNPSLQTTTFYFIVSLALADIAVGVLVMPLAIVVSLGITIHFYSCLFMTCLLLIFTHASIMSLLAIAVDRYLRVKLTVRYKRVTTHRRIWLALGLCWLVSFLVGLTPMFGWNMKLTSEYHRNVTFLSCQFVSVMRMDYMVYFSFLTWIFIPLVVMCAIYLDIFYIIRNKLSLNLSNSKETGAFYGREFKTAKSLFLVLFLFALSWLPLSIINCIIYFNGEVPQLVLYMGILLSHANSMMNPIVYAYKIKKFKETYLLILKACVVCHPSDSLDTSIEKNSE

Experiment [2] concerns the target T3, Cholecystokinin receptor type A (Homo sapiens, UniProt P32238).
T3 sequence (P32238 whole entry): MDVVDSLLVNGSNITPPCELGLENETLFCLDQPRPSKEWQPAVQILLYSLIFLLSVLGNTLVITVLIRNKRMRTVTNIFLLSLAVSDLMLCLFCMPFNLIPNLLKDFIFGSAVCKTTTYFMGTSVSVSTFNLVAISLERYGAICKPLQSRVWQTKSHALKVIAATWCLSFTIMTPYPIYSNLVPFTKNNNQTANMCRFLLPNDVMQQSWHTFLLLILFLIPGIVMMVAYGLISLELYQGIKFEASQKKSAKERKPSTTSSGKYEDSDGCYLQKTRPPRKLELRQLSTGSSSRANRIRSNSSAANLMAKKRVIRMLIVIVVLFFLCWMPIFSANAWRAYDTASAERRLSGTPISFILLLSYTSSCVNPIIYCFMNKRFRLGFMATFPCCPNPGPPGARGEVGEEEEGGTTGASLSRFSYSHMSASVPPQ

Another experiment has as its target D(1A) dopamine receptor (Homo sapiens, UniProt P21728). The class given is functional, cell-based.
Experiment [3] concerns the target T4, 5-hydroxytryptamine receptor 1A (Homo sapiens, UniProt P08908).
T4 sequence (P08908 whole entry): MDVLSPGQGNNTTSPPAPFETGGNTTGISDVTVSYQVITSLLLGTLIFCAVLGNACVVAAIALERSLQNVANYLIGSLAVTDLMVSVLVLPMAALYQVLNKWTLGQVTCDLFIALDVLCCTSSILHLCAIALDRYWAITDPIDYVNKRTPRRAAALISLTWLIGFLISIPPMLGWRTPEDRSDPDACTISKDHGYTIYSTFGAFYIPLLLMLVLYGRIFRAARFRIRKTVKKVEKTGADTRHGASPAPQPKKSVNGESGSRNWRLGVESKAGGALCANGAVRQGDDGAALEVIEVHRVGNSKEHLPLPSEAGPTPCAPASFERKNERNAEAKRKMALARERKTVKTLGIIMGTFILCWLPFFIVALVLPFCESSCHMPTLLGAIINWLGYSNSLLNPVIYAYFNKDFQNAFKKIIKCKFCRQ
The class given is functional, cell-based.

Experiment [4] has as its target Sodium-dependent noradrenaline transporter (Homo sapiens, UniProt P23975).
Experiment [5] concerns the target cGMP-inhibited 3',5'-cyclic phosphodiesterase 3A (Homo sapiens, UniProt Q14432). The class given is functional.
The target in experiment [6] is T5, Equilibrative nucleoside transporter 1 (Homo sapiens, UniProt Q99808).
T5 sequence (Q99808 whole entry): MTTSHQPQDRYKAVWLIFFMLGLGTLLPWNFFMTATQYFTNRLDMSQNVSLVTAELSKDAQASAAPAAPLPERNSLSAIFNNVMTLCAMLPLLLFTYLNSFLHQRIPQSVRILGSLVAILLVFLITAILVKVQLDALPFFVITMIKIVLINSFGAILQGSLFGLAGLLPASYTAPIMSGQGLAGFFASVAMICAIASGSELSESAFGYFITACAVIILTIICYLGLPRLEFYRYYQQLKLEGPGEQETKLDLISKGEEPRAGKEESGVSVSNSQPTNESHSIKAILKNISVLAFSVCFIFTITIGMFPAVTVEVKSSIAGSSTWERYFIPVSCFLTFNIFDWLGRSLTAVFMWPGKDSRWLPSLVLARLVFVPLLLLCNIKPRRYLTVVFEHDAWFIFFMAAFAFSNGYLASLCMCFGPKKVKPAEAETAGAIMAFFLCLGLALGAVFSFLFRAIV
Further: assay procedure not described here.

Sequence of D(1A) dopamine receptor (P21728 whole entry): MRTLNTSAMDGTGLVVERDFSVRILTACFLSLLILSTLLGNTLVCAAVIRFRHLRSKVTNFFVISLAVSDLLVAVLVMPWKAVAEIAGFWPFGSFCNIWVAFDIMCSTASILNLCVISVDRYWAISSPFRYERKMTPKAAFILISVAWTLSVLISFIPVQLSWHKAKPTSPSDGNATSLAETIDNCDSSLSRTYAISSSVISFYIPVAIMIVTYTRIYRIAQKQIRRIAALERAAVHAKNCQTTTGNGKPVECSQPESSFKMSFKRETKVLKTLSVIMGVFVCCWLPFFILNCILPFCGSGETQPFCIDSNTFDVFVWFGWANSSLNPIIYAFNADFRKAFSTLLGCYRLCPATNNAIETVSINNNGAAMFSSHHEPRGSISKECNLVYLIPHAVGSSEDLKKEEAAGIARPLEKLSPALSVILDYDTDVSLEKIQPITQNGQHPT
Sequence of Melanocortin receptor 3 (P41968 whole entry): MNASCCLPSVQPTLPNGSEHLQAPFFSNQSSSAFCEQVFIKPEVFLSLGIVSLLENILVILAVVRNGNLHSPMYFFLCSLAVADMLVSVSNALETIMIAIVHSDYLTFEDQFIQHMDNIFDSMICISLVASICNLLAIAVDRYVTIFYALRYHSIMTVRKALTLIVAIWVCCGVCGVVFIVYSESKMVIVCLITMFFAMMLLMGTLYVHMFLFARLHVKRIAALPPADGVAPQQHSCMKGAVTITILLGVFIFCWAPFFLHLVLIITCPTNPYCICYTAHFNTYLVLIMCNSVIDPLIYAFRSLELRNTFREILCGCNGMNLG
Sequence of cGMP-inhibited 3',5'-cyclic phosphodiesterase 3A (Q14432 whole entry): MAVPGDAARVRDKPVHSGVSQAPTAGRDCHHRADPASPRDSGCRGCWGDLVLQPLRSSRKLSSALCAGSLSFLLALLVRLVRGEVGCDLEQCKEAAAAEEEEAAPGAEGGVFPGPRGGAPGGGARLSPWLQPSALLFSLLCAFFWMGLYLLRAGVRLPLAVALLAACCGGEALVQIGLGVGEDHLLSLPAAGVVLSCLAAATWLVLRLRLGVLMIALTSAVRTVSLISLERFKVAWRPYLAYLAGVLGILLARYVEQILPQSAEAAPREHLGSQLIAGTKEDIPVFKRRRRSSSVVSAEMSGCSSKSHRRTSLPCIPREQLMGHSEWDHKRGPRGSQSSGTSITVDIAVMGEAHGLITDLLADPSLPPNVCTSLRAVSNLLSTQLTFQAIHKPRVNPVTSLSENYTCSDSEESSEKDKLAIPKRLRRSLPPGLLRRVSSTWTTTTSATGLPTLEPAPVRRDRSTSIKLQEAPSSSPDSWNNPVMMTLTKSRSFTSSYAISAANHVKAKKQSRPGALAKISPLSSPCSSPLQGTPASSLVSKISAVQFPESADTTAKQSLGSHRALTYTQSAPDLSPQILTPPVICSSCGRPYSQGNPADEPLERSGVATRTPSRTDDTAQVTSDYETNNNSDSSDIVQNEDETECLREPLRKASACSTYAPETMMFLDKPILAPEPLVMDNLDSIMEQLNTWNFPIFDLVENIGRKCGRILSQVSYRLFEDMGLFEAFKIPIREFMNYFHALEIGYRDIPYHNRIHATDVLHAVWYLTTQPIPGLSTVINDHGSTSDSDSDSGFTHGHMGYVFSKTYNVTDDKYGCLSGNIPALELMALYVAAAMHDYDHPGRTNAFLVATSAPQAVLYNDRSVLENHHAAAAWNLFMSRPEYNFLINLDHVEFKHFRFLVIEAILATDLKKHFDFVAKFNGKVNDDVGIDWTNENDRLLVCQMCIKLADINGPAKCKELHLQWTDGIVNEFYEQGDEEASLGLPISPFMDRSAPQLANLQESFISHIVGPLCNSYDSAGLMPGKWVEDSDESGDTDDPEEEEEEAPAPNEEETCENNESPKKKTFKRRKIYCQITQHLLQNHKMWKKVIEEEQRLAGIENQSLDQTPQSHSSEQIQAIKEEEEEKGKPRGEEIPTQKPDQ
Sequence of Voltage-gated inwardly rectifying potassium channel KCNH2 (Q12809 whole entry): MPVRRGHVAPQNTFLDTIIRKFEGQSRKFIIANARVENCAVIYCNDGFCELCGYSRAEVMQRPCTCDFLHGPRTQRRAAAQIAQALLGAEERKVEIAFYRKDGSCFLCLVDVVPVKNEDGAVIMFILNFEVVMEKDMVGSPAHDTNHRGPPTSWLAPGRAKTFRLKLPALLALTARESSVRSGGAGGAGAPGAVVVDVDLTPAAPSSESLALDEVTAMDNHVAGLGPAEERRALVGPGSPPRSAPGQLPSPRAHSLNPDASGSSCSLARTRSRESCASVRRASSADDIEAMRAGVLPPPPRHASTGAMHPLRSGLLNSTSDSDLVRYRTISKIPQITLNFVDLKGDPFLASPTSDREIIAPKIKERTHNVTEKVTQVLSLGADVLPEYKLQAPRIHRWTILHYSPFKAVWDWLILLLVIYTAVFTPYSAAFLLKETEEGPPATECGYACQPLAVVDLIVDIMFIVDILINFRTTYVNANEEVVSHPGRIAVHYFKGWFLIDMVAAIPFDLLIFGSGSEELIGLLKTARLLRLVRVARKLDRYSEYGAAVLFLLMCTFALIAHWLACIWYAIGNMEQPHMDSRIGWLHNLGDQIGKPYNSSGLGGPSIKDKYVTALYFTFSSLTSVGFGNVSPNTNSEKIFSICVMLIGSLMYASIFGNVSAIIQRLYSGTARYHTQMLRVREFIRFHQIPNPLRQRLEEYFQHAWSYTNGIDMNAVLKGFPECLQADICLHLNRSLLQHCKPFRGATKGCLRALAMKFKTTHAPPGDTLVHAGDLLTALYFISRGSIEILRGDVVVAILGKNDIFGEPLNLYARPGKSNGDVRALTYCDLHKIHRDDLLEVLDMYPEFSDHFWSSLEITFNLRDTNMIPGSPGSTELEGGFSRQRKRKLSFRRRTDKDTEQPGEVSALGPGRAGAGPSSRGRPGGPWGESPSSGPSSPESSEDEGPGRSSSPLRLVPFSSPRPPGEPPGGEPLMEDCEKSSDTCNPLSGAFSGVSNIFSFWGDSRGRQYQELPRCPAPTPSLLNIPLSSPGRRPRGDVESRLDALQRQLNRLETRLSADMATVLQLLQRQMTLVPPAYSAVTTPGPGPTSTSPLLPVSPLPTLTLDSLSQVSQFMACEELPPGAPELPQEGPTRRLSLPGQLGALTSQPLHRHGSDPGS
Sequence of Adenosine receptor A2a (P29274 whole entry): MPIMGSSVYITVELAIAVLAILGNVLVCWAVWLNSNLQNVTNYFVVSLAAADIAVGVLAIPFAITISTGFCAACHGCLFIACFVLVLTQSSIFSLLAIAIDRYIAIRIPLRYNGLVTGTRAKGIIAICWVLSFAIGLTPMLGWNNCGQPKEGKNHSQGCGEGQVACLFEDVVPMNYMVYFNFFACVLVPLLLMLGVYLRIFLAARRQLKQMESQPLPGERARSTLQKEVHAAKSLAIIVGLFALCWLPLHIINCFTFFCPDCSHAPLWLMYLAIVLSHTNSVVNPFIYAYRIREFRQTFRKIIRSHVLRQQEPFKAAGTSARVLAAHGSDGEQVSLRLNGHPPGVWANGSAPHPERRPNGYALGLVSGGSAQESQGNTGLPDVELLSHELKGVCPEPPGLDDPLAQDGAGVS
Sequence of D(3) dopamine receptor (P35462 whole entry): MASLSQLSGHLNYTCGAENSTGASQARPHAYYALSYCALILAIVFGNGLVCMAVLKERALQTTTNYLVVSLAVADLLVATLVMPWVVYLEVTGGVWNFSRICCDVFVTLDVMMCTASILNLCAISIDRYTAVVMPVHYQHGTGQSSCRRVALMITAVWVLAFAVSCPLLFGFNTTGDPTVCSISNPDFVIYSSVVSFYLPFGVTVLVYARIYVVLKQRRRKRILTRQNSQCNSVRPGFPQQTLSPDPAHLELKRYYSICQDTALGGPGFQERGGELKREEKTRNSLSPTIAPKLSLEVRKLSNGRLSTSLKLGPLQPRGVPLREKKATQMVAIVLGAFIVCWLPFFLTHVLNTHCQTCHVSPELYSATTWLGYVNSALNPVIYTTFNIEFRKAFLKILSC
Sequence of Sodium-dependent noradrenaline transporter (P23975 whole entry): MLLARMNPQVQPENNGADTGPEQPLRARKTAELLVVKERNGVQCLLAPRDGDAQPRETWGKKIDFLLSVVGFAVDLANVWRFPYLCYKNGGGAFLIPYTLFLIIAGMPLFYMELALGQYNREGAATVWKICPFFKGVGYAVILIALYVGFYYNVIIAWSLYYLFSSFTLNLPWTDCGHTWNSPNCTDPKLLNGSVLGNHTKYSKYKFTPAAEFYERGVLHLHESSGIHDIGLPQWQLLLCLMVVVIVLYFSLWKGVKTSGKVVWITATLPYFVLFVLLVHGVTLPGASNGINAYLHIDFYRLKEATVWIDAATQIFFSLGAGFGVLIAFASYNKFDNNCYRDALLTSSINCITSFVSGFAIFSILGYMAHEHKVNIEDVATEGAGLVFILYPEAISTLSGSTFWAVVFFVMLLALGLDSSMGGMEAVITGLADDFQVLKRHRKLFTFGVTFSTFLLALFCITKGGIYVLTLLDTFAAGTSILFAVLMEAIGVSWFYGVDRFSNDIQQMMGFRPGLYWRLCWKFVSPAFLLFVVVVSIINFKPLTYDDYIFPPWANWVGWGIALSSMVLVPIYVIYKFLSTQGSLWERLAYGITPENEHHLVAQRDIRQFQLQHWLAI

Regarding `OC[C@H]1NC[C@H](O)[C@@H](O)[C@H]1O`, the AC50 in experiment [1] was more than 30 µM.

Turning to `O=C(O)[C@@H](S)[C@@H](S)C(=O)O`, the AC50 in [1] is more than 30 µM.

Turning to `CC#CC(=O)N1CCC[C@H]1c1nc(-c2ccc(C(=O)Nc3ccccn3)cc2)c2c(N)nccn12` [ACALABRUTINIB], in [1], the AC50 was more than 30 µM.

As for `C=CCOc1ccc(CC(=O)O)cc1Cl` [ALCLOFENAC], the AC50 in experiment [1] was more than 30 µM.

For `CC[N+](CC)(CCNC(=O)C(=O)NCC[N+](CC)(CC)Cc1ccccc1Cl)Cc1ccccc1Cl` [AMBENONIUM], the AC50 (on Adenosine receptor A1; on Adenosine receptor A2a; on Adenosine receptor A3; in [2]; on D(1A) dopamine receptor; in experiment [3]) was more than 30 µM each time. Moreover, the AC50 in experiment [1] is 7.8 µM; at Melanocortin receptor 3, more than 30 µM; in [4] it was 10 µM; in experiment [5], more than 30 µM; on D(3) dopamine receptor it was more than 30 µM.

For the compound `NCCCNCCSP(=O)(O)O` [AMIFOSTINE], the AC50 (on Adenosine receptor A1; on Adenosine receptor A2a; at Adenosine receptor A3; in experiment [2]; on D(1A) dopamine receptor; in [3]) was more than 30 µM each time. In addition, the AC50 (in [1]; on Melanocortin receptor 3; in experiment [4]; in [5]; at D(3) dopamine receptor) was more than 30 µM in each case.

As for `NC(=O)C1(N2CCCCC2)CCN(CCCN2c3ccccc3CCc3ccccc32)CC1` [CARPIPRAMINE], the AC50 in experiment [1] is 2.2 µM.

`O=C(Cc1cccs1)N[C@@H]1C(=O)N2C(C(=O)[O-])=C(C[n+]3ccccc3)CS[C@H]12` [CEPHALORIDINE]: the AC50 (on D(1A) dopamine receptor; in experiment [3]; in [1]; in experiment [5]; at D(3) dopamine receptor) was more than 30 µM throughout.

For the compound `CN1CCN(C(c2ccccc2)c2ccc(Cl)cc2)CC1` (stereo unspecified) [CHLORCYCLIZINE], the AC50 in [1] is 4.64 µM.

Turning to `CC(C)/N=c1\cc2n(-c3ccc(Cl)cc3)c3ccccc3nc-2cc1Nc1ccc(Cl)cc1` [CLOFAZIMINE], the AC50 (at Adenosine receptor A1; at Adenosine receptor A2a; at Adenosine receptor A3; in [2]; at D(1A) dopamine receptor; in experiment [3]) was more than 30 µM each time. Besides, the AC50 in experiment [1] is 0.958 µM; on Melanocortin receptor 3 it was more than 30 µM; in [4], more than 30 µM; in [5] it was more than 30 µM; at D(3) dopamine receptor, more than 30 µM.

For `CCCCCCCCCCCCCCCC(=O)OC[C@H](COP(=O)([O-])OCC[N+](C)(C)C)OC(=O)CCCCCCCCCCCCCCC` [COLFOSCERIL PALMITATE], in experiment [1], the AC50 is more than 30 µM.

`O=P1(N(CCCl)CCCl)NCCCO1` (stereo unspecified) [CYCLOPHOSPHAMIDE ANHYDROUS]: in experiment [1], the AC50 is more than 30 µM.

As for `CC(C)Nc1cccnc1N1CCN(C(=O)c2cc3cc(NS(C)(=O)=O)ccc3[nH]2)CC1` [DELAVIRDINE], the AC50 in experiment [1] was found to be 16 µM.

With `C[C@@H](CN1CC(=O)NC(=O)C1)N1CC(=O)NC(=O)C1` [DEXRAZOXANE], the AC50 in experiment [1] is more than 30 µM.

As to `O=c1[nH]c2ccccc2n1CCN1CCN(c2cccc(C(F)(F)F)c2)CC1` [FLIBANSERIN], the AC50 in experiment [1] stood at 13 µM.

With `O=C(O)[C@H](O)[C@@H](O)[C@H](O)[C@H](O)CO` [GLUCONIC ACID], the AC50 in experiment [1] was more than 30 µM.

Turning to `N=C(N)NCC1COc2ccccc2O1` (stereo unspecified) [GUANOXAN], the AC50 in [1] is more than 30 µM.

On to `N#Cc1ccnc(N2C(=O)CC[C@H]2C(=O)N(c2cncc(F)c2)[C@H](C(=O)NC2CC(F)(F)C2)c2ccccc2Cl)c1` [IVOSIDENIB], for which the AC50 in experiment [1] is more than 30 µM.

Regarding `CNC1(c2ccccc2Cl)CCCCC1=O` (stereo unspecified) [KETAMINE], in experiment [1], the AC50 was more than 30 µM.

In the case of `CC(=O)NC[C@H]1CN(c2ccc(N3CCOCC3)c(F)c2)C(=O)O1` [LINEZOLID], the AC50 (at Adenosine receptor A1; on Adenosine receptor A2a; on Adenosine receptor A3; in experiment [3]; in experiment [1]; at Melanocortin receptor 3) was more than 30 µM throughout. In addition, the AC50 (in experiment [6]; in experiment [5]; on D(3) dopamine receptor) was more than 30 µM in each case.

As for `O=C1[C@@H]2[C@H]3CC[C@H](C3)[C@@H]2C(=O)N1C[C@@H]1CCCC[C@H]1CN1CCN(c2nsc3ccccc23)CC1` [LURASIDONE], the AC50 on Adenosine receptor A1 is more than 30 µM; at Adenosine receptor A2a, more than 30 µM; at Adenosine receptor A3, 9.9 µM; at Melanocortin receptor 3 it was more than 30 µM; in experiment [6] it was more than 30 µM; in [4] it was more than 30 µM. Moreover, the AC50 in [5] was more than 30 µM; on D(3) dopamine receptor, 0.43 µM.

On to `CCCCCCO[C@@H](C)c1cccc(-c2csc(NC(=O)c3cc(Cl)c(/C=C(\C)C(=O)O)c(Cl)c3)n2)c1OC` [LUSUTROMBOPAG], for which the AC50 in experiment [1] turned out to be 4.9 µM.

Consider `Cc1cc(C)cc(OCC2CNC(=O)O2)c1` (stereo unspecified) [METAXALONE], for which the AC50 in [1] was more than 30 µM.

Regarding `CO[C@@]1(NC(=O)C(C(=O)O)c2ccc(O)cc2)C(=O)N2C(C(=O)O)=C(CSc3nnnn3C)CO[C@@H]21` (stereo partly specified) [MOXALACTAM], in [1], the AC50 was more than 30 µM.

On to `CCCCCCCC/C=C\CCCCCCCC(=O)O` [OLEIC ACID], for which the AC50 in [1] is more than 30 µM.

Regarding `C#CCN(C)Cc1ccccc1` [PARGYLINE], the AC50 (at D(1A) dopamine receptor; in [3]; in experiment [1]; in [5]) was more than 30 µM throughout.

As for `CC1=C(C/C=C(\C)CCC[C@H](C)CCC[C@H](C)CCCC(C)C)C(=O)c2ccccc2C1=O` [PHYTONADIONE], the AC50 in experiment [1] was more than 30 µM.

Regarding `NC(=O)C1(N2CCCCC2)CCN(CCCC(=O)c2ccc(F)cc2)CC1` [PIPAMPERONE], the AC50 in experiment [1] came out at 1.9 µM.

On to `COc1cccc2c1C(=O)c1c(O)c3c(c(O)c1C2=O)C[C@@](O)(C(=O)CO)C[C@@H]3O[C@H]1C[C@H](N)[C@H](O[C@@H]2CCCCO2)[C@H](C)O1` [PIRARUBICIN], for which, in experiment [1], the AC50 is more than 30 µM.

With `CC(C)(Oc1ccc(Cl)cc1)C(=O)NC(=O)NCN1CCOCC1` [PLAFIBRIDE], the AC50 in [1] is more than 30 µM.

On to `CC(C)NC[C@H](O)COc1ccc(O)cc1` [PRENALTEROL], for which, in experiment [1], the AC50 is more than 30 µM.

As to `CN1CCC(N(Cc2cccs2)c2ccccc2)CC1` [THENALIDINE], the AC50 in [1] came to 2.9 µM.

In the case of `Cc1ccc(C(C)C)c(O)c1` [THYMOL], the half-maximal activity concentration (AC50) in experiment [1] was more than 30 µM.

`Cc1cccc(C)c1NC(=O)c1cc(S(N)(=O)=O)c(Cl)cc1O` [XIPAMIDE]: the AC50 in experiment [1] was more than 30 µM.
